Among the data in ChEMBL document CHEMBL1159347, “A novel constituent from Rollinia mucosa, rollicosin, and a new approach to develop annonaceous acetogenins as potential antitumor agents” (J Nat Prod, 2003) are IC50 values, retold here.

≈ marks a conversion by molar mass, not a printed value.

Assay [1] in a line: Cytotoxicity against human HepG2(2.2.15) cells. It is filed as functional, cell-based.
The test system of the next assay is HepG2. Kind of assay: Cytotoxicity against human HepG2 cells. It is filed as functional, cell-based.

The term IC50 denotes the midpoint of a concentration-inhibition curve. Read a high IC50 as weaker potency in that assay. In assay [1], `COc1cccc2c1C(=O)c1c(O)c3c(c(O)c1C2=O)C[C@@](O)(C(=O)CO)C[C@@H]3O[C@H]1C[C@H](N)[C@H](O)[C@H](C)O1` [DOXORUBICIN] came in with an IC50 of 0.45 µg/mL (≈ 0.828 µM).

With `C[C@H]1C=C(C[C@H](O)CCCCCCCCCC[C@@H](O)[C@H]2CCC(=O)O2)C(=O)O1` [ROLLICOSIN], the IC50 in assay [1] was determined as 0.021 µg/mL (≈ 0.053 µM); with HepG2 it was 0.1 µg/mL (≈ 0.252 µM).
